Reference: ChEMBL document CHEMBL4808216, “Gut-Restricted Selective Cyclooxygenase-2 (COX-2) Inhibitors for Chemoprevention of Colorectal Cancer” (J Med Chem, 2021)
Active and inactive are the calls of the source. The rule behind the calls is not given here.

What was measured:
[1] = test system: Mus musculus; assay: Chemo-protective activity in C57BL/6J mouse model of spontaneous GI-tract tumor Apc-min assessed as 18F-FDG uptake in ileum at 300 mg/kg, po incorporated into chow diet administered daily for 2 weeks and measured after 14 days by ex vivo PET imaging analysis relative to control; format: functional
[2] = Clearance in C57BL/6J mouse at 2 mg/kg, iv measured after 0.08 to 24 hrs; format: ADME, organism-based; conditions: in vivo, time 0.08-24 hrs
[3] = biological target: T1, Prostaglandin G/H synthase 2 (Homo sapiens) (UniProt P35354)
T1 sequence (whole entry): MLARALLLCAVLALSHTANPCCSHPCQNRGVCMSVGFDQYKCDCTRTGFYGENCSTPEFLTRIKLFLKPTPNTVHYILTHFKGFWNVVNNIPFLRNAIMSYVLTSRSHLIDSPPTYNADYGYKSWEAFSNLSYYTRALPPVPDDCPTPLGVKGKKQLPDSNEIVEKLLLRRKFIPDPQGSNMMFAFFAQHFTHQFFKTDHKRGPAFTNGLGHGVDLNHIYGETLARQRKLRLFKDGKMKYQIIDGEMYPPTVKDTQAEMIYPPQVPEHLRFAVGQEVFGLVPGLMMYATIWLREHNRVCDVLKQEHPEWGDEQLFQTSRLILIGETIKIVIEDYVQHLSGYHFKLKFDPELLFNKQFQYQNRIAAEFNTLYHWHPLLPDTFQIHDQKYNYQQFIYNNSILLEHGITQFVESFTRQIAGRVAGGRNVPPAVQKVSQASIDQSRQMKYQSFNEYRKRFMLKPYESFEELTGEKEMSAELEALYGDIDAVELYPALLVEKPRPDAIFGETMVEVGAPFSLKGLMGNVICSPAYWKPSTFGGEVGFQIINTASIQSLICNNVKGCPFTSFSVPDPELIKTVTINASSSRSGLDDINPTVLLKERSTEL
Description: Protein occupancy at human recombinant COX-2 assessed as dissociation half life

[4] = biological target: Prostaglandin G/H synthase 1 (Homo sapiens, UniProt P23219); assay: Inhibition of human recombinant COX-1 assessed as reduction in peroxidase activity using arachidonic acid as substrate preincubated for 60 mins followed by substrate addition for 2 secs by ADPH based fluorometric analysis; format: ADME
Prostaglandin G/H synthase 1, sequence (P23219 whole entry): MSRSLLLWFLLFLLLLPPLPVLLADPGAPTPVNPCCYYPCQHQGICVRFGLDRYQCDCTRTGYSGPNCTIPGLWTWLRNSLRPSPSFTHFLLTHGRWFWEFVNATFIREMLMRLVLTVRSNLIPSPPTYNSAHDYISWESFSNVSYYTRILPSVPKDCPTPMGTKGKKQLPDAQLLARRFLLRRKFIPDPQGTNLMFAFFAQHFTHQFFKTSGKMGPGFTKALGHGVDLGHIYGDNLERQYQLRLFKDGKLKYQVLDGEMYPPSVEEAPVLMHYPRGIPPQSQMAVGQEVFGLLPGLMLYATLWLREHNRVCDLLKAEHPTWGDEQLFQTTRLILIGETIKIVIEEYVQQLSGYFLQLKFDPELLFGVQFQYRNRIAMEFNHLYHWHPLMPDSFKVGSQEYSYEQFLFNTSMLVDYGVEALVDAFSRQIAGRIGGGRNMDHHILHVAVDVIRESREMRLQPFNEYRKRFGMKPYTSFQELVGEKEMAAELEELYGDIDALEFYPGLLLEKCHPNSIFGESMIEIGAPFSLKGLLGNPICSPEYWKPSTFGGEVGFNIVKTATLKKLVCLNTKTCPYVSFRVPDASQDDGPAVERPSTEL

[5] = Tmax in C57BL/6J mouse at 10 mg/kg, po administered as cassette dose measured at 4 hrs by liquid chromatographic triple-quadrupole mass spectrometric method; format: ADME, organism-based; conditions: in vivo
[6] = biological target: T2, Prostaglandin G/H synthase 2 (Mus musculus, UniProt Q05769); assay: In vivo inhibition of COX2 in po dosed C57BL/6J mouse model of spontaneous GI-tract tumor Apc-min assessed as chemopreventive effect by measuring reduction in polyp area and relevant ileum exposures; format: functional, organism-based
T2 sequence (Q05769 whole entry): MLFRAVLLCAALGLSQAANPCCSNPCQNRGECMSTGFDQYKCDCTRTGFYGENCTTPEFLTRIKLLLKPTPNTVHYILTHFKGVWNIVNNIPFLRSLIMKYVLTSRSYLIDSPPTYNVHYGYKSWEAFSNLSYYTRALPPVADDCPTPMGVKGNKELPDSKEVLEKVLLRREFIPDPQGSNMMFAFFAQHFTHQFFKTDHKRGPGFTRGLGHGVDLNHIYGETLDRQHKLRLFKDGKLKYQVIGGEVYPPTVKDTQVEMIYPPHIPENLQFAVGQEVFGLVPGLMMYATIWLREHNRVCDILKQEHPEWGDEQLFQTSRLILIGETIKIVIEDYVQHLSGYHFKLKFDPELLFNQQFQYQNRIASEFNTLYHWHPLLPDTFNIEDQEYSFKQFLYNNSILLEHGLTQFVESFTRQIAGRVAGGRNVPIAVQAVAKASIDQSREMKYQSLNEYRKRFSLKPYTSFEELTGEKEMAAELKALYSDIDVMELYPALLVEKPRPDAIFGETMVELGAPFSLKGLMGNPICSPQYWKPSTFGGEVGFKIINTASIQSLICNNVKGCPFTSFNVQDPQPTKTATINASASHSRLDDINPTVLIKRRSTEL

[7] = Half life in mouse hepatocytes; format: ADME, cell-based, Hepatocyte
[8] = Drug concentration in C57BL/6J mouse plasma at 10 mg/kg, po administered as cassette dose measured at 4 hrs by LC/MS/MS analysis; format: ADME, organism-based
[9] = test system: Mus musculus; assay: Chemo-protective activity in po dosed C57BL/6J mouse model of spontaneous GI-tract tumor Apc-min assessed as reduction in 18F-FDG uptake in ileum incorporated into chow diet administered daily for 2 weeks and measured after 14 days by ex vivo PET imaging analysis; format: functional, organism-based
[10] = biological target: T3, Prostaglandin G/H synthase 2 (Homo sapiens, UniProt P35354); assay: Inhibition of human recombinant COX-2 using arachidonic acid as substrate preincubated for 60 mins followed by substrate addition for 2 secs by ADPH based fluorometric analysis
T3 sequence (P35354 whole entry): T1 sequence (whole entry)

[11] = Half life in human liver microsomes; format: ADME, Microsome
[12] = biological target: T3, Prostaglandin G/H synthase 2; assay: Inhibition of COX2 in human whole blood assessed as reduction in LPS stimulated PGE2 production incubated for 1 hr by ELISA; format: tissue-based

CCCOc1nc(OCC(C)(C)O)c(-c2ccc(S(C)(=O)=O)cc2)cc1CO
Activity [1]: 35.6% | clearance [2]: 92.7 mL/min/kg | T1/2 [3]: 534 min | IC50 [4]: > 50000 nM | Tmax [5]: 15 min | IC50 [6]: 2380 nM | half-life [7]: 3 min | concentration at 4 h [8]: 5.7 ng/mL | Activity [9]: Active | Ki [10]: 114 nM | half-life [11]: > 184 min | IC50 [12]: 2340 nM
